Values of other authors in patent EP4684794A1, “TECHNICAL FORMULATION FOR ACTIVE ABSORPTION OF AMINO ACIDS BY HUMAN REPRODUCTIVE SYSTEM” (Xu, Haohan, priority 2023, dated 2024).

Tests used:
MC3T3-E1 osteoblasts = conditions: platelet-derived growth factor-BB, SAPK/JNK pathway
bone marrow macrophages = conditions: blocking the NF- κ B and MAPK signaling pathways

O=C(O[C@@H]1Cc2c(O)cc(O)cc2O[C@@H]1c1cc(O)c(O)c(O)c1)c1cc(O)c(O)c(O)c1 [EGCG, epigallocatechin gallate]
expression of IL-6 and IL-6 mRNA (MC3T3-E1 osteoblasts): reducing the expression of IL-6 and IL-6 mRNA
LPS-mediated pro-inflammatory gene expression (bone marrow macrophages): may prevent LPS-mediated pro-inflammatory gene expression
teratogenic or developmental toxicity (animal experiments): no teratogenic or developmental toxicity was observed
genotoxicity (mouse body fluid analyses): no genotoxic effects
